Patent publication US20230045421A1 (priority 2018, published 2023)
Like-named read-outs stand apart in the source and are kept apart here.

System: HBV rcDNA
Assay: HepDE19 assay with bDNA quantitation of HBV rcDNA
Format: cell-based, hepatitis B virus
Procedure: HepDE19 Assay with bDNA Quantitation of HBV rcDNA:
HepDE19 cell culture system is a HepG2 (human hepatocarcinoma) derived cell line that supports HBV DNA replication and cccDNA formation in a tetracycline (Tet)-regulated manner and produces HBV rcDNA and a detectable reporter molecule dependent on the production and maintenance of cccDNA (Guo, et al., 2007, J. Virol. 81:12472-12484).
HepDE19 (50,000 cells/well) were plated in 96-well collagen-coated tissue-culture treated microtiter plates in DMEM/F12 medium supplemented with 10% fetal bovine serum, 1% penicillin-streptomycin and 1 μg/mL tetracycline and incubated in a humidified incubator at 37° C. and 5% CO2 overnight. Next day, the cells were switched to fresh medium without tetracycline and incubated for 4 hours at 37° C. and 5% CO2. The cells were treated with fresh Tet-free medium with compounds at concentrations starting at 25 μM and a serial, […], 8-point, titration series in duplicate. The final DMSO concentration in the assay was 0.5%. The plates were incubated for 7 days in a humidified incubator at 37° C. and 5% CO2. Following a 7 day-incubation, the level of rcDNA present in the inhibitor-treated wells was measured using a Quantigene 2.0 bDNA assay kit (Affymetrix, Santa Clara, Calif.) with HBV specific custom probe set and manufacturers instructions. Concurrently, the effect of compounds on cell viability was assessed using replicate plates, plated at a density of 5,000 cells/well and incubated for 4 days, to determine the ATP content as a measure of cell viability using the cell-titer glo reagent (CTG; Promega Corporation, Madison, Wis.) as per manufacturer's instructions. The plates were read using a Victor luminescence plate reader (PerkinElmer Model 1420 Multilabel counter) and the relative luminescence units (RLU) data generated from each well was calculated as % inhibition of the untreated control wells and analyzed using XL-Fit module in Microsoft Excel to determine EC50 and EC90 (bDNA) and CC50 (CTG) values using a 4-parameter curve fitting algorithm.

[1] = HepDE19 assay, inhibition of formation of rcDNA; read-out: DE-19bDNA EC50
[2] = HepDE19 assay, inhibition of formation of relaxed circular DNA (rcDNA), bDNA quantitation; read-out: DE-19bDNA EC50
[3] = Hepatitis B virus, HepDE19, HepDE19 assay, inhibition of formation of rcDNA; read-out: DE-19bDNA EC50
[4] = read-out: DE-19bDNA EC50; HepDE19 assay, inhibition of formation of rcDNA
[5] = read-out: DE-19bDNA EC50; HepDE19 assay, inhibition of formation of relaxed circular DNA (rcDNA), bDNA quantitation

| Structure (SMILES) | EC50 [1] | EC50 [2] | other results |
| --- | --- | --- | --- |
| CCN(C(=O)Nc1ccc(F)c(Cl)c1)C(c1ccccc1)c1cnc(OC)c2ccccc12 (single isomer, unassigned) [Compound 59, 3-(3-Chloro-4-fluorophenyl)-1-ethyl-1-((1-methoxyisoquinolin-4-yl)(phenyl)methyl)urea] | 22000 nM | – | – |
| CC(c1c[nH]c(=O)c2ccccc12)N(Cc1cscn1)C(=O)Nc1ccc(F)c(Cl)c1 (single isomer, unassigned) [Compound 313, 3-(3-Chloro-4-fluorophenyl)-1-(1-(1-oxo-1,2-dihydroisoquinolin-4-yl)ethyl)-1-(thiazol-4-ylmethyl)urea] | – | 400 nM | – |
| COc1ncc(CNC(=O)Nc2ccc(F)c(C)c2)c2ccccc12 [Compound 7, 1-(4-Fluoro-3-methylphenyl)-3-((1-methoxyisoquinolin-4-yl)methyl)urea] | – | – | EC50 [3]: 12000 nM |
| CC(c1c[nH]c(=O)c2c(F)c(F)ccc12)N(C)C(=O)Nc1ccc(F)c(Cl)c1 (single isomer, unassigned) [Compound 331, 3-(3-Chloro-4-fluorophenyl)-1-(1-(7,8-difluoro-1-oxo-1,2-dihydroisoquinolin-4-yl)ethyl)-1-methylurea] | – | 15 nM | – |
| CCCN(Cc1cnc(OC)c2ccccc12)C(=O)Nc1ccc(F)c(Cl)c1 [Compound 20, 3-(3-Chloro-4-fluorophenyl)-1-((1-methoxyisoquinolin-4-yl)methyl)-1-propylurea] | – | – | EC50 [3]: 440 nM |
| Cc1cc(NC(=O)N(C)C(C)c2c(C)[nH]c(=O)c3ccccc23)ccc1F (single isomer, unassigned) [Compound 237, 3-(4-Fluoro-3-methylphenyl)-1-methyl-1-(1-(3-methyl-1-oxo-1,2-dihydroisoquinolin-4-yl)ethyl)urea] | 40 nM | – | – |
| CC(c1c[nH]c(=O)c2c(F)cc(F)cc12)N(C)C(=O)Nc1ccc(F)c(Cl)c1 (single isomer, unassigned) [Compound 368, 3-(3-Chloro-4-fluorophenyl)-1-(1-(6,8-difluoro-1-oxo-1,2-dihydroisoquinolin-4-yl)ethyl)-1-methylurea] | – | 2500 nM | – |
| CC(c1cnc(NCCN)c2ccccc12)N(C)C(=O)Nc1ccc(F)c(Cl)c1 (single isomer, unassigned) [Compound 250, 1-(1-(1-((2-Aminoethyl)amino)isoquinolin-4-yl)ethyl)-3-(3-chloro-4-fluorophenyl)-1-methylurea] | 1500 nM | – | – |
| CC(c1c[nH]c(=O)c2ccccc12)N(CCC#N)C(=O)Nc1ccc(F)c(Cl)c1 (single isomer, unassigned) [Compound 113, 3-(3-Chloro-4-fluorophenyl)-1-(2-cyanoethyl)-1-(1-(1-oxo-1,2-dihydroisoquinolin-4-yl)ethyl)urea] | 60 nM | – | – |
| CCOCCN(C(=O)Nc1ccc(F)c(Cl)c1)C(C)c1c[nH]c(=O)c2ccccc12 (single isomer, unassigned) [Compound 109, 3-(3-Chloro-4-fluorophenyl)-1-(2-ethoxyethyl)-1-(1-(1-oxo-1,2-dihydroisoquinolin-4-yl)ethyl)urea] | – | – | EC50 [4]: 8000 nM |
| COCCN(C(=O)Nc1ccc(F)c(Cl)c1)C(C)c1cnc(OC)c2ccccc12 (single isomer, unassigned) [Compound 73, 3-(3-Chloro-4-fluorophenyl)-1-(2-methoxyethyl)-1-(1-(1-methoxyisoquinolin-4-yl)ethyl)urea] | 780 nM | – | – |
| CC(c1c[nH]c(=O)c2ccccc12)N(CC[C@H](C)O)C(=O)Nc1ccc(F)c(Cl)c1 (single isomer, unassigned) [Compound 213] | – | – | EC50 [4]: 3600 nM |
| CNS(=O)(=O)CCCN(C(=O)Nc1ccc(F)c(Cl)c1)C(C)c1c[nH]c(=O)c2ccccc12 (single isomer, unassigned) [Compound 220, 3-(3-(3-Chloro-4-fluorophenyl)-1-(1-(1-oxo-1,2-dihydroisoquinolin-4-yl)ethyl)ureido)-N-methylpropane-1-sulfonamide] | – | – | EC50 [3]: 140 nM |
| COc1ncc(CN(CC2CC2)C(=O)Nc2ccc(F)c(Cl)c2)c2ccccc12 [Compound 31, 3-(3-Chloro-4-fluorophenyl)-1-(cyclopropylmethyl)-1-((1-methoxyisoquinolin-4-yl)methyl)urea] | – | – | EC50 [3]: 870 nM |
| CC(c1c[nH]c(=O)c2c(F)cc(F)cc12)N(C)C(=O)Nc1ccc(F)cc1 (single isomer, unassigned) [Compound 370, 1-(1-(6,8-Difluoro-1-oxo-1,2-dihydroisoquinolin-4-yl)ethyl)-3-(4-fluorophenyl)-1-methylurea] | – | 5600 nM | – |
| CCN(C(=O)Nc1ccc(F)c(Cl)c1)C(C)c1c[nH]c(=O)c2c(F)c(F)ccc12 (single isomer, unassigned) [Compound 469, 3-(3-Chloro-4-fluorophenyl)-1-(1-(7,8-difluoro-1-oxo-1,2-dihydroisoquinolin-4-yl)ethyl)-1-ethylurea] | – | 5 nM | – |
| CC(c1cnc(N)c2ccccc12)N(C)C(=O)Nc1ccc(F)c(Cl)c1 (single isomer, unassigned) [Compound 239, 1-(1-(1-Aminoisoquinolin-4-yl)ethyl)-3-(3-chloro-4-fluorophenyl)-1-methylurea] | 210 nM | – | – |
| CCN(C(=O)Nc1ccc(F)c(Cl)c1)C(C)c1c[nH]c(=O)c2cnccc12 (single isomer, unassigned) [Compound 151, 3-(3-Chloro-4-fluorophenyl)-1-ethyl-1-(1-(1-oxo-1,2-dihydro-2,7-naphthyridin-4-yl)ethyl)urea] | 2000 nM | – | – |
| CC(c1cnc(C(=O)N(C)C)c2ccccc12)N(C)C(=O)Nc1ccc(F)c(Cl)c1 (single isomer, unassigned) [Compound 318, 4-(1-(3-(3-Chloro-4-fluorophenyl)-1-methylureido)ethyl)-N,N-dimethylisoquinoline-1-carboxamide] | – | 24000 nM | – |
| CCN(C(=O)Nc1ccc(F)cc1)C(C)c1c[nH]c(=O)c2cc(F)c(F)cc12 (single isomer, unassigned) [Compound 403, 1-(1-(6,7-Difluoro-1-oxo-1,2-dihydroisoquinolin-4-yl)ethyl)-1-ethyl-3-(4-fluorophenyl)urea] | – | 28 nM | – |
| CC(c1c[nH]c(=O)c2c(F)c(F)ccc12)N(C)C(=O)Nc1cc(Cl)cc(Cl)c1 (single isomer, unassigned) [Compound 448, 3-(3,5-Dichlorophenyl)-1-(1-(7,8-difluoro-1-oxo-1,2-dihydroisoquinolin-4-yl)ethyl)-1-methylurea] | – | – | EC50 [5]: 70 nM |
| CCOCCN(C(=O)Nc1ccc(F)c(Cl)c1)C(C)c1cnc(OC)c2ccccc12 (single isomer, unassigned) [Compound 125, 3-(3-Chloro-4-fluorophenyl)-1-(2-ethoxyethyl)-1-(1-(1-methoxyisoquinolin-4-yl)ethyl)urea] | 20000 nM | – | – |
| CC(C)CN(C(=O)Nc1ccc(F)c(Cl)c1)C(C)c1cnc(-n2cncn2)c2ccccc12 (single isomer, unassigned) [Compound 344, 1-(1-(1-(1H-1,2,4-triazol-1-yl)isoquinolin-4-yl)ethyl)-3-(3-chloro-4-fluorophenyl)-1-isobutylurea] | – | 2300 nM | – |
| CC(C)CN(C(=O)Nc1ccc(F)c(Cl)c1)C(C)c1c[nH]c(=O)c2c(F)cc(F)cc12 (single isomer, unassigned) [Compound 372, 3-(3-Chloro-4-fluorophenyl)-1-(1-(6,8-difluoro-1-oxo-1,2-dihydroisoquinolin-4-yl)ethyl)-1-isobutylurea] | – | 5 nM | – |
| C[C@H](c1c[nH]c(=O)c2ccccc12)N(C)C(=O)Nc1ccc(F)c(Cl)c1 [Compound 14, (R)-3-(3-chloro-4-fluorophenyl)-1-methyl-1-(1-(1-oxo-1,2-dihydroisoquinolin-4-yl)ethyl)urea] | – | – | EC50 [3]: 40 nM |
| CC(c1c[nH]c(=O)c2cc(F)c(F)cc12)N(C)C(=O)Nc1ccc(F)cc1 (single isomer, unassigned) [Compound 286, 1-(1-(6,7-Difluoro-1-oxo-1,2-dihydroisoquinolin-4-yl)ethyl)-3-(4-fluorophenyl)-1-methylurea] | – | 20 nM | – |
| CCOCCN(C(=O)Nc1ccc(F)c(Cl)c1)C(C)c1cnc(OC)c2ccccc12 (single isomer, unassigned) [Compound 126, 3-(3-Chloro-4-fluorophenyl)-1-(2-ethoxyethyl)-1-(1-(1-methoxyisoquinolin-4-yl)ethyl)urea] | 630 nM | – | – |
| CCN(C(=O)Nc1ccccc1)C(C)c1c[nH]c(=O)c2c(F)c(F)ccc12 (single isomer, unassigned) [Compound 466, 1-(1-(7,8-Difluoro-1-oxo-1,2-dihydroisoquinolin-4-yl)ethyl)-1-ethyl-3-phenylurea] | – | – | EC50 [5]: 8500 nM |
